Measurements as given in patent US20150359771A1, “TREATING PULMONARY CONDITIONS” (priority 2013, published 2015).

What was measured:
phospho-NFκB = phospho-NFκB protein expression in MLEC, direct treatment, Western blot; type: cell-based, mouse; conditions: theophylline 1 μM, leucine 0.5 mM, resveratrol 200 nM
Method: (§1) Cells were grown in Dulbecco's modified eagle's medium (DMEM) containing a growth factor supplement (Cell Biologics # M1 166) which included 5% fetal bovine serum (FBS), heparin, EGF, hydrocortisone, L-glutamine and antibiotics at 37° C. in 5% CO2.
For Western blot, 2 μg (for NFκB) or 4 μg (for phospho-NFκB) of protein from the cell lysate was resolved on 10% Tris/HCL polyacrylamide gels (Criterion precast gel, Bio-Rad Laboratories, Hercules, Calif.), transferred to PVDF membranes (NFκB and phospho-NFκB), incubated in blocking buffer (3% BSA in TBS) and then incubated with primary antibody, washed and incubated with secondary horseradish peroxidase-conjugated antibody.
(§2) Following treatment, western blots or ELISA assays were performed on the MLEC to determine the level of various indicators of airway diseases, such as NFκB protein expression, eotaxin secretion, IL1-β secretion, cellular IL6 content or secretion, adiponectin receptor 1 protein expression, and adiponectin receptor 2 protein expression.

IL 6 [1] = test: IL 6 secretion from MLEC, direct treatment, ELISA; type: cell-based, mouse; conditions: FIG. 8
Method: as §1
(§3) Interleukin 1-β, eotaxin, and interleukin 6 were all measured via enzyme-linked immunosorbent assay using specific antibodies for each cytokine (Abcam, Cambridge, Mass.) and a horseradish peroxidase-based second antibody detection system, with chromogenic detection at 450 nm using a microplate reader (Synergy HT, BioTek Instruments, Winooski, Vt.).
as §2

NFκB = NFκB protein expression in mouse primary lung endothelial cells (MLEC), direct treatment, Western blot; type: cell-based; conditions: theophylline 1 μM, leucine 0.5 mM, resveratrol 200 nM, FIG. 1
IL1-β = IL1-β secretion from MLEC, direct treatment, ELISA; type: cell-based, mouse; conditions: theophylline 1 μM, leucine 0.5 mM, resveratrol 200 nM, FIG. 4
From the text: as §3

IL 6 [2] = test: cellular IL 6 content in MLEC, direct treatment; type: cell-based, mouse; conditions: theophylline 1 μM, leucine 0.5 mM, resveratrol 200 nM, FIG. 7
Method: as §1, §3, §2

eotaxin = eotaxin secretion from MLEC, direct treatment, ELISA; type: cell-based, mouse; conditions: theophylline 1 μM, leucine 0.5 mM, resveratrol 200 nM, FIG. 5
From the text: as §3

## Cn1c(=O)c2[nH]cnc2n(C)c1=O [theophylline]
phospho-NFκB
  effect on phospho-NFκB levels: no effect
IL 6 [1]
  effect on IL 6 secretion (in words): no significant independent effect
NFκB
  effect on NFκB protein expression relative to control: no independent effect
IL1-β
  effect on IL1-β secretion (in words): no significant independent effect
IL 6 [2]
  effect on cellular expression of IL 6: unaffected
eotaxin
  effect on eotaxin secretion (in words): no significant effect

## TNFα
IL 6 [1]
  effect on IL 6 secretion (in words): significant increase
IL1-β
  effect on IL1-β secretion (in words): increase
eotaxin
  effect on eotaxin secretion (in words): no significant effect
